According to patent US7320679B2, “Therapeutic use of growth factor, and delivery device, especially for the treatment of intimal hyperplasia” (Ark Therapeutics, Ltd., priority 1996, dated 2008):
“And” between values parts separate entries of the source, which are not always exact repeats. Equal values may be shown once. “Also recorded” adds a separate entry of the source. Read-outs that look alike come from different tables or passages of the source.

Experiments:
Assay type in all cases: cell-based, human
PGI2 synthesis in HUVEC = assay: PGI2 assay (radioimmunoassay of 6-keto-PGF1a) in HUVEC; conditions: for mean fold increase in 6-keto PGF1a above control unstimulated level: 60 min, 60 ng/ml PIGF, 1 U/ml thrombin
Procedure: (§1) Cell Culture: HUVECs were obtained either from Clonetics and cultured in the manufacturer's own medium supplemented with 2% FBS, or were grown from fresh umbilical cords by collagenase digestion and cultured on 1% gelatin-coated plates in medium 199 supplemented with 20% FCS and endothelial cell growth supplement (Wheeler-Jones et al, Biochem. J. (1996) 315:407-416). For experimental purposes, primary cultures of HUVEC were dispersed by treatment with 0.05% trypsin/0.02% EDTA for 5 min at 37° C. and then replated in either 90 mm, 60 mm or 35 mm plastic dishes, or onto 24-well plates. Cultures were maintained in a humidified atmosphere containing 5% CO2 and […] at 37° C. and used after 6-8 days or when the cells had formed a confluent monolayer. […] The PGI2 content of cell supernatants was quantified by radioimmunoassay of 6-keto-PGF1a, the stable breakdown product of PGI2 as previously described (Wheeler-Jones et al, supra). Arachidonic Acid Release: Arachidonic acid release was determined essentially as described (Domin and Rozengurt, J. Biol. Chem. (1993) 268:8927-8934.). Confluent HUVEC cultures were incubated for 24 h with [5,6,8,9,11,12,14,15-^3H]arachidonic acid (1 mCi/ml, 211 Ci/mmol). […] After treatment, the medium was removed, centrifuged in a microcentrifuge at 16,000×g for 5 min, and the radioactivity in the supernatant was determined by counting in a scintillation counter. Western Blotting Procedures: Treatment of quiescent cultures of cells with factors, and cell lysis were performed as described above and in the Results and Figure Legends. After SDS-PAGE, proteins were transferred to Immobilon membranes (Millipore Inc.). For MAP kinase assays, membranes were blocked using 5% non-fat dried milk in PBS, pH 7.2, and incubated for 3-5 h in PBS/0.05% Tween-20 containing primary antibody (1 mg/ml) as indicated. For immunoblots with antibody to cPLA2, membranes were blocked for 3 h in TBST50 mM Tris/HCl, 150 mM NaCl, 0.02% (v/v) Tween 20 pH 7.4 (TBST) containing 0.2% (w/v) 1-block (Tropix), then incubated with primary antiserum in TBST. Membranes were then washed six times (10 min each wash) in TBST and incubated for 1 hour in TBST containing HRP-conjugated secondary antibody. Immunoreactive bands were visualized by chemiluminescence using HRP-conjugated anti-mouse or anti-rabbit IgG and ECL™ reagent according to the manufacturers instructions. MAP Kinase Assay: Cells were treated with factors as indicated, washed rapidly twice with ice-cold PBS and immediately extracted by the addition of […] boiling 2×SDS-PAGE sample buffer. Cell extracts were collected by scraping, heated to 95° C. for 10 min and run on 12.5% acrylamide SDS-PAGE gels. Following transfer to Immobilon membranes, proteins were immunoblotted with an antibody which specifically recognizes p42 and p44 MAP kinases (Erk-1 and Erk-2) activated by phosphorylation at Tyr204 (Payne e al, EMBO J. (1991) 10:885-892.). cPLA2 Mobility Shift Assay: Confluent quiescent HUVECs in 60 mm dishes were washed twice in serum-free medium 199 (pH 7.4) and subsequently exposed, for the times indicated, to medium containing factors as detailed in the Figure legends. Cell lysates were prepared as previously described (Wheeler-Jones et al, supra). Proteins were separated by SDS-PAGE (10% acrylamide) and after transfer to membranes were immunoblotted with polyclonal anti-serum to cPLA2 (BorschHaubold et al, J. Biol. Chem. (1995) 270: 25885-25892; and Kramer et al, J. Biol. Chem. (1996) 271:27723-27729). Assay of vWF Secretion: vWF secretion was measured by ELISA (Wheeler-Jones et al, supra) in samples of medium obtained from confluent cultures of HUVECs which had been treated with factors, as indicated. Plates were coated with the anti-vWF mAb CLBRAg35, and the lower detection limit of the assay was approximately 1.0 mU/ml. Materials: Recombinant VEGF was obtained either from UBI or from R & D Systems. […]

p42/p44 MAP kinases = assay: MAP kinase assay (phospho-p42/p44 immunoblot) in HUVEC; parameters: inhibition of VEGF-stimulated MAP kinase activity: dose or concentration left out as unconfirmed
Procedure: as §1

cPLA2 = cPLA2 mobility shift assay in HUVEC; parameters: effect of PD98059 on VEGF-stimulated increase in slow-migrating cPLA2: dose or concentration left out as unconfirmed
Procedure: as §1

vWF secretion by HUVECs = assay: vWF secretion by ELISA in HUVEC; parameters: effect of PD98059 on VEGF-induced vWF secretion: dose or concentration left out as unconfirmed
Procedure: as §1

[1] = test system: arachidonic acid release in HUVEC; assay: Arachidonic acid release from prelabelled HUVEC
Procedure: as §1

[2] = test system: 205 kD protein corresponding to VEGF receptor; assay: Anti-phosphotyrosine immunoprecipitation/immunoblot in HUVEC; conditions: HUVEC
Procedure: In some experiments, cells were pretreated for 1 h with 100 μM L-NAME and subsequently treated either with or without. […] The medium was removed and cells were rapidly lysed at 4° C. by addition of 10 mM Tris/HCl (pH 7.6), 5 mM EDTA, 50 mM NaCl, 30 mM sodium pyrophosphate, 50 mM NaF, 0.1 mM Na3VO4, 1 mM PMSF and 1% Triton X-100 (lysis buffer). Lysates were clarified by centrifugation at 15000×g for 10 min, and immunoprecipitations were performed by incubating clarified lysates with PY20 anti-phosphotyrosine mAb for 2 h at […] Immunoprecipitates were collected by incubating lysates for a further 1 hour with protein A-agarose. Immunoprecipitates were washed three times with lysis buffer and proteins were then extracted with 2×SDS-PAGE sample buffer. After SDS-PAGE, immunoprecipitated proteins were transferred to membranes and then immunoblotted with PY20 mAb.

HUVECs = assay: Migration of HUVECs in chemotaxis chambers; conditions: PIGF 5-60 ng/ml
NO production in HUVEC = assay: Nitrite (NO) production in HUVEC, capillary detection method
Procedure: Nitrite production was measured using capillary detection method (Leone et al, in Methods in Nitric Oxide Research, Feelisch and Stanler, eds. John Wiley & Sons, New York (1996) 499-508).

Molecule: COc1cccc(-c2cc(=O)c3ccccc3o2)c1N [PD98059, reference compound]
- concentration of maximum inhibitory effect on stimulated PGI2 production (PGI2 synthesis in HUVEC): 10 µM
- effect of PD98059 on VEGF-induced PGI2 production (PGI2 synthesis in HUVEC; 30 mM PD98059 30 min pretreatment, 25 ng/ml VEGF 60 min): completely inhibited; also recorded: complete inhibition
- effect of PD98059 on thrombin-induced PGI2 production (PGI2 synthesis in HUVEC; 30 mM PD98059 30 min pretreatment, 1 U/ml thrombin 60 min): completely inhibited
- inhibitor concentration at which PGI2 production fell below control values (PGI2 synthesis in HUVEC; VEGF-treated cells): greater than 10 mM
- PGI2 production in control, unstimulated cells (PGI2 synthesis in HUVEC; basal): abolished
- concentration reducing MAP kinase activity to control, unstimulated level (p42/p44 MAP kinases): 10 to 20 mM
- inhibition of VEGF-stimulated MAP kinase activity (p42/p44 MAP kinases): greater than 50%
- effect of PD98059 on VEGF stimulation of p42/p44 MAP kinases (p42/p44 MAP kinases; 30 min pretreatment): completely inhibited; also recorded: complete inhibition
- effect of PD98059 on VEGF-stimulated increase in slow-migrating cPLA2 (cPLA2): completely blocked; also recorded: complete inhibition
- effect of PD98059 on VEGF-induced vWF secretion (vWF secretion by HUVECs): neither prevented nor significantly reduced; also recorded: no effect
- effect of PD98059 on basal or thrombin-stimulated vWF secretion (vWF secretion by HUVECs): no effect

Molecule: VEGF
- concentration of maximum arachidonic acid release [1]: 10 to 20 ng/mL
- half-maximum effect on arachidonic acid release [1]: 2.5 to 5 ng/mL
- mean increase in release of labelled arachidonic acid above basal unstimulated level [1]: 1.6 fold
- time at which arachidonic acid release was evident [1]: 10 min
- time of half-maximum arachidonic acid mobilization [1]: 10 min
- time of maximum arachidonic acid release [1]: 30 min
- concentration range inducing tyrosine phosphorylation of 205 kDa protein [2]: 1 to 25 ng/mL
- chemotaxis of HUVECs (HUVECs): concentration-dependent increase in chemotaxis
- time for which PGI2 production was sustained (PGI2 synthesis in HUVEC): up to 2 h
- time up to which PGI2 production continued to increase (PGI2 synthesis in HUVEC): up to 60 min
- PGI2 synthesis at 25 ng/ml (PGI2 synthesis in HUVEC; 25 ng/ml VEGF): small decline
- mean fold increase in 6-keto PGF1a above control unstimulated level (PGI2 synthesis in HUVEC; 25 ng/ml VEGF): 2.0 fold and 2 fold
- concentration at which increase in PGI2 synthesis was detectable (PGI2 synthesis in HUVEC; 60 min incubation): 5 ng/mL
- concentration of maximum PGI2 synthesis (PGI2 synthesis in HUVEC; 60 min incubation): 15 ng/mL
- half-maximal PGI2 synthesis (PGI2 synthesis in HUVEC; 60 min incubation): 10 ng/mL
- concentration of maximum MAP kinase activation (p42/p44 MAP kinases; 15 min exposure): 10 ng/mL and 5 to 10 ng/mL
- concentration up to which maximum MAP kinase effect was sustained (p42/p44 MAP kinases; 15 min exposure): up to 50 ng/ml
- cPLA2 mobility shift (in words) (cPLA2): marked increase in the immunoreactivity of the slow-migrating form
- concentration giving noticeable increase in slow-migrating cPLA2 (cPLA2): 2.5 ng/mL
- concentration of maximum increase in slow-migrating cPLA2 (cPLA2): 5 to 10 ng/mL and 5 ng/mL
- time at which cPLA2 shift to slow-migrating form was detectable (cPLA2; VEGF 25 ng/ml): 2 min
- time for which cPLA2 shift was sustained (cPLA2; VEGF 25 ng/ml): up to 60 min
- time of maximum cPLA2 shift (cPLA2; VEGF 25 ng/ml): 15 min
- vWF secretion (in words) (vWF secretion by HUVECs): comparable to, though consistently weaker than, that of thrombin
- vWF level above control cells (vWF secretion by HUVECs; 25 ng/ml VEGF, 3 h): 2.5 fold
- concentration of maximum effect on vWF secretion (vWF secretion by HUVECs; highest concentration tested): 25 ng/mL
- time for which NO production was sustained (NO production in HUVEC): up to 2 hours
- half-maximal effect on NO production (NO production in HUVEC; HUVEC, nitrite levels): 5 ng/mL
- nitrite production level (NO production in HUVEC; VEGF 2.5 ng/ml, 10 minutes (first of two levels)): ~19 µM
- nitrite production level (NO production in HUVEC; VEGF 25 ng/ml for times up to 2 h): 1.8 to 2 µM
- nitrite production level (NO production in HUVEC; VEGF 25 ng/ml, 10 minutes (second of two levels)): ~2.1 µM
- earliest time effect on NO production seen (NO production in HUVEC; after addition of VEGF): 30 s
- time of maximum NO production (NO production in HUVEC; after addition of VEGF): 5 min

Molecule: thrombin [reference compound]
- mean increase in release of labelled arachidonic acid above basal unstimulated level ([1]; four independent experiments): 3.4 fold
- mean fold increase in 6-keto PGF1a above control unstimulated level (PGI2 synthesis in HUVEC; 25 ng/ml VEGF): 4.4 fold
- cPLA2 mobility shift (in words) (cPLA2): striking shift

B1: PIGF: VEGF-related factor, a specific ligand for the Flt-1 VEGF receptor; recombinant (protein)
chain: AVPPQQWALSAGNGSSEVEVVPFQEVWGRSYCRALERLVDVVSEYPSEVEHMFSPSCVSLLRCTGCCGDENLHCVPVETANVTMQLLKIRSGDRPSYVELTFSQHVRCECRPLREKMKPERCGDAVPRR
- arachidonic acid release (in words) ([1]; prelabelled HUVECs): no detectable significant increase
- chemotaxis of HUVECs (HUVECs): no detectable increase
- mean fold increase in 6-keto PGF1a above control unstimulated level (PGI2 synthesis in HUVEC; 25 ng/ml VEGF): 1.3 fold
- MAP kinase activity (in words) (p42/p44 MAP kinases; PIGF 1-60 ng/ml): little, if any, detectable increase; also recorded: little effect
- cPLA2 mobility shift (in words) (cPLA2): no detectable shift
- vWF secretion (in words) (vWF secretion by HUVECs): no detectable stimulation
